{
  "source": "patent US10005767B2",
  "about": "“Compositions and methods for inhibition of the JAK pathway” (Rigel Pharmaceuticals, Inc., priority 2009, dated 2018)",
  "note": "pIC50: −log10 of the molar value. Structures can show the parent of a compound that is named as a salt.",
  "data": [
    {"system": "human primary T-cells, IL-2 stimulated proliferation (JAK-1 and JAK-3 dependent; reported as JAK3 activity)", "assay": "Human primary T-cell proliferation stimulated by IL-2 (Example 3)", "assay_type": "cell-based", "details": "Homo sapiens, T-cell, tested under conditions described in Example 3 (IL-2 stimulated human primary T-cell proliferation); read-out: ability to inhibit JAK3 activity, IC50 range (Table V)", "from_the_text": "(§1) The activity of the compounds described herein can further be characterized by assaying the effect of the 2,4-pyrimidinediamine compounds described herein on the proliferative response of primary human T-cells. In this assay, primary human T-cells derived from peripheral blood and pre-activated through stimulation of the T-cell receptor and CD28, proliferate in culture in response to the cytokine Interleukin-2 (IL-2). This proliferative response is dependent on the activation of JAK1 and JAK3 tyrosine kinases, which phosphorylate and activate the transcription factor Stat-5. The primary human T-cells are incubated with the 2,4-pyrimidinediamine compounds in the presence of IL-2 for 72 hours, and at the assay endpoint intracellular ATP concentrations are measured to assess cell viability. A reduction in cell proliferation compared to control conditions is indicative of inhibition of the JAK kinase pathway.\n(§2) Primary human T-cells derived from peripheral blood and pre-activated through stimulation of the T-cell receptor and CD28, proliferate in vitro in response to the cytokine Interleukin-2 (IL-2). This proliferative response is dependent on the activation of JAK-1 and JAK-3 tyrosine kinases, which phosphorylate and activate the transcription factor Stat-5.\n(§3) Human primary T cells were prepared as follows. […] The lymphocytes at the serum: ficoll interface were recovered and washed twice with 5 volumes of PBS. […] The primary T-cells were stimulated for 3-4 days, then transferred to a fresh flask and maintained in RPMI with 10% FBS and 40 U/mL IL-2.\n(§4) The day prior to the assay set up, primary T-cells were centrifuged and resuspended in fresh RPMI with 10% FBS but without IL-2 and starved overnight. For the assay, the primary T-cells were centrifuged and resuspended Yssel's medium at 2×10^6 cells/mL. 50 μL of cell suspension containing 80 U/mL IL-2 was added to each well of a flat bottom 96 well black plate. For the unstimulated control, IL-2 was omitted from the last column on the plate. […] 50 μL of 2× compound was added per well in duplicate and the cells were allowed to proliferate for 72 hours at 37° C.\n(§5) Proliferation was measured using CellTiter-Glo® Luminescent Cell Viability Assay (Promega), which determines the number of viable cells in culture based on quantitation of the ATP present, as an indicator of metabolically active cells. The substrate was thawed and allowed to come to ambient temperature. After mixing the Cell Titer-Glo reagent and diluent together, 100 μL was added to each well. The plates were mixed on an orbital shaker for two minutes to induce lysis and incubated at ambient temperature for an additional ten minutes to allow the signal to equilibrate.\n(§6) The compound designations in Table V are consistent with those of Tables I-IV above.", "values": [
      {"compound": "Cc1cnc(Nc2ccc(N3CCN(C(=O)C(F)(F)F)[C@H](C)C3)nc2)nc1Nc1ccc2oc(=O)[nH]c2c1", "note": "[II-57, (R)-5-(5-methyl-2-(6-(3-methyl-4-(2,2,2-trifluoroacetyl)piperazin-1-yl)pyridin-3-ylamino)pyrimidin-4-ylamino)benzo[d]oxazol-2(3H)-one]", "pIC50": "> 6.30"},
      {"compound": "Cc1ccc(C)c(Nc2ncc(C)c(Nc3ccc4oc(=O)[nH]c4c3)n2)c1", "note": "[Compound I-501, 5-(2-(2,5-dimethylphenylamino)-5-methylpyrimidin-4-ylamino)benzo[d]oxazol-2(3H)-one]", "pIC50": "5.30 to 6.30"},
      {"compound": "Cc1cc(C)c(Nc2ncc(C)c(Nc3ccc4oc(=O)[nH]c4c3)n2)c(C)c1", "note": "[IV-61, 5-[5-Methyl-2-(2,4,6-trimethyl-phenylamino)-pyrimidin-4-ylamino]-3H-benzooxazol-2-one]", "pIC50": "< 5.00"},
      {"compound": "COc1ccc(Nc2ncc(C)c(Nc3ccc4oc(=O)[nH]c4c3)n2)cc1C(F)F", "note": "[Compound I-271, 5-(2-(3-(difluoromethyl)-4-methoxyphenylamino)-5-methylpyrimidin-4-ylamino)benzo[d]oxazol-2(3H)-one]", "pIC50": "> 6.30"},
      {"compound": "Cc1cnc(Nc2ccc(N3CCOCC3)nc2)nc1Nc1cc(C)c2oc(=O)[nH]c2c1", "note": "[II-73, 7-methyl-5-(5-methyl-2-(6-morpholinopyridin-3-ylamino)pyrimidin-4-ylamino)benzo[d]oxazol-2(3H)-one]", "pIC50": "> 6.30"},
      {"compound": "Cc1cc(F)c(Nc2ncc(C)c(Nc3ccc4oc(=O)[nH]c4c3)n2)cc1C", "note": "[Compound I-530, 5-(2-(2-fluoro-4,5-dimethylphenylamino)-5-methylpyrimidin-4-ylamino)benzo[d]oxazol-2(3H)-one]", "pIC50": "> 6.30"},
      {"compound": "Cc1cnc(Nc2cc(OCC3CC3)cc(C(F)(F)F)c2)nc1Nc1ccc2oc(=O)[nH]c2c1", "note": "[Compound I-225, 5-(2-(3-(cyclopropylmethoxy)-5-(trifluoromethyl)phenylamino)-5-methylpyrimidin-4-ylamino)benzo[d]oxazol-2(3H)-one]", "pIC50": "5.30 to 6.30"},
      {"compound": "CCN(CC)C1CCN(c2ccc(Nc3ncc(C)c(Nc4ccc5oc(=O)[nH]c5c4)n3)cn2)C1", "note": "(centres unmarked) [II-82, 5-(2-(6-(3-(diethylamino)pyrrolidin-1-yl)pyridin-3-ylamino)-5-methylpyrimidin-4-ylamino)benzo[d]oxazol-2(3H)-one]", "pIC50": "> 6.30"},
      {"compound": "Cc1cnc(Nc2ccc(F)c(-c3cccnc3)c2)nc1Nc1ccc2oc(=O)[nH]c2c1", "note": "[Compound I-472, 5-(2-(4-fluoro-3-(pyridin-3-yl)phenylamino)-5-methylpyrimidin-4-ylamino)benzo[d]oxazol-2(3H)-one]", "pIC50": "> 6.30"},
      {"compound": "Cc1cnc(Nc2cc(C)c(I)c(C)c2)nc1Nc1ccc2oc(=O)[nH]c2c1", "note": "[Compound I-527, 5-[2-(4-Iodo-3,5-dimethyl-phenylamino)-5-methyl-pyrimidin-4-ylamino]-3H-benzooxazol-2-one]", "pIC50": "> 6.30"},
      {"compound": "Cc1cnc(Nc2cccc(Cl)c2)nc1Nc1ccc2oc(=O)[nH]c2c1", "note": "[Compound I-173, 5-[2-(3-Chloro-phenylamino)-5-methyl-pyrimidin-4-ylamino]-3H-benzooxazol-2-one]", "pIC50": "> 6.30"},
      {"compound": "Cc1cnc(Nc2cccc(C(N)=O)c2)nc1Nc1ccc2oc(=O)[nH]c2c1", "note": "[Compound I-2, N4-(benzo[d]oxazol-2(3H)-on-5-yl)-N2-(3-aminocarbonylphenyl)-5-methylpyrimidine-2,4-diamine]", "pIC50": "> 6.30"},
      {"compound": "CCNC(C)c1cc(Nc2ncc(C)c(Nc3ccc4oc(=O)[nH]c4c3)n2)cc(C(F)(F)F)c1", "note": "(centres unmarked) [Compound I-462, 5-(2-(3-(1-(ethylamino)ethyl)-5-(trifluoromethyl)phenylamino)-5-methylpyrimidin-4-ylamino)benzo[d]oxazol-2(3H)-one]", "pIC50": "> 6.30"},
      {"compound": "Cc1cnc(Nc2ccc(C(N)=O)c(N3CCCC3)c2)nc1Nc1ccc2oc(=O)[nH]c2c1", "note": "[Compound I-136, 4-[5-Methyl-4-(2-oxo-2,3-dihydro-benzooxazol-5-ylamino)-pyrimidin-2-ylamino]-2-pyrrolidin-1-yl-benzamide]", "pIC50": "> 6.30"},
      {"compound": "Cc1cnc(Nc2ccnc(N3CCN(C)CC3)c2)nc1Nc1ccc2oc(=O)[nH]c2c1", "note": "[IV-8, N4-(benzo[d]oxazol-2(3H)-on-5-yl)-N2-[2-(4-methylpiperazino)pyridin-4-yl]-5-methylpyrimidine-2,4-diamine]", "pIC50": "< 5.00"},
      {"compound": "Cc1cnc(Nc2ccc(N3CCN(C)CC3)nc2)nc1Nc1ccc2c(c1)oc(=O)n2C", "note": "[II-23, N2-(6-(4-methylpiperazin-1-yl)pyridin-3-yl)-N4-(3-methyl-2-oxo-2,3-dihydrobenzo[d]oxazol-6-yl)-5-methylpyrimidine-2,4-diamine trifluoroacetate salt]", "pIC50": "> 6.30"},
      {"compound": "Cc1cnc(Nc2cc(F)c(F)cc2F)nc1Nc1ccc2oc(=O)[nH]c2c1", "note": "[Compound I-481, 5-[5-Methyl-2-(2,4,5-trifluoro-phenylamino)-pyrimidin-4-ylamino]-3H-benzooxazol-2-one]", "pIC50": "> 6.30"}
    ]},
    {"system": "human primary T-cells, IL-2 stimulated proliferation (JAK-1 and JAK-3 dependent; reported as JAK3 activity)", "assay": "Human primary T-cell proliferation stimulated by IL-2 (Example 3)", "assay_type": "cell-based", "details": "tested under conditions described in Example 3 (IL-2 stimulated human primary T-cell proliferation); read-out: ability to inhibit JAK3 activity, IC50 range (Table V)", "from_the_text": "as §1, §2, §3, §4, §5, §6", "values": [
      {"compound": "Cn1c(=O)oc2ccc(Nc3nc(Nc4ccc(S(N)(=O)=O)cc4)ncc3F)cc21", "note": "[Compound I-76, N2-((4-aminosulfonyl)phenyl)-N4-(3-methyl-2-oxo-2,3-dihydrobenzo[d]oxazol-5-yl)-5-fluoropyrimidine-2,4-diamine]", "pIC50": "5.30 to 6.30"},
      {"compound": "Cc1cnc(Nc2cc(F)cc(OC(C)(C)C(N)=O)c2)nc1Nc1ccc2oc(=O)[nH]c2c1", "note": "[Compound I-402, N2-[3-(1-aminocarbonyl-1-methyl)ethoxy-5-fluoro]phenyl-5-methyl-N4-(2-oxo-2,3-dihydro-1,3-benzoxazol-5-yl)-2,4-pyrimidinediamine]", "pIC50": "> 6.30"},
      {"compound": "Cc1cnc(Nc2cccc(NS(C)(=O)=O)c2)nc1Nc1ccc2oc(=O)[nH]c2c1", "note": "[Compound I-55, N4-(benzo[d]oxazol-2(3H)-on-5-yl)-N2-(3-methylsulfonylamino)phenyl)-5-methylpyrimidine-2,4-diamine formate salt]", "pIC50": "> 6.30"},
      {"compound": "Cc1cnc(Nc2ccc(OCC(N)=O)cc2)nc1Nc1ccc2oc(=O)[nH]c2c1", "note": "[Compound I-307, N2-(4-aminocarbonylmethoxy)phenyl-5-methyl-N4-(2-oxo-2,3-dihydro-1,3-benzoxazol-5-yl)-2,4-pyrimidinediamine]", "pIC50": "> 6.30"},
      {"compound": "Cc1cnc(Nc2ccc(N3CCC(F)(F)CC3)c(Cl)c2)nc1Nc1ccc2oc(=O)[nH]c2c1", "note": "[Compound I-277, N2-[3-chloro-4-(4,4-difluoropiperidinyl)]phenyl-5-methyl-N4-(2-oxo-2,3-dihydro-1,3-benzoxazol-5-yl)-2,4-pyrimidinediamine]", "pIC50": "> 6.30"},
      {"compound": "Cc1cnc(Nc2ccc(OC(F)F)c(F)c2)nc1Nc1ccc2oc(=O)[nH]c2c1", "note": "[Compound I-347, N2-(4-difluoromethoxy-3-fluoro)phenyl-5-methyl-N4-(2-oxo-2,3-dihydro-1,3-benzoxazol-5-yl)-2,4-pyrimidinediamine]", "pIC50": "> 6.30"},
      {"compound": "Cc1cnc(Nc2cc(Cl)cc(OC(F)(F)F)c2)nc1Nc1ccc2oc(=O)[nH]c2c1", "note": "[Compound I-378, N2-(3-chloro-5-trifluoromethoxy)phenyl-5-methyl-N4-(2-oxo-2,3-dihydro-1,3-benzoxazol-5-yl)-2,4-pyrimidinediamine]", "pIC50": "> 6.30"},
      {"compound": "Cc1cnc(Nc2ccc(Cl)c(N3CC(C)N(C)C(C)C3)c2)nc1Nc1ccc2oc(=O)[nH]c2c1", "note": "(centres unmarked) [Compound I-284, N2-[4-chloro-3-(3,4,5-trimethylpiperazino)]phenyl-5-methyl-N4-(2-oxo-2,3-dihydro-1,3-benzoxazol-5-yl)-2,4-pyrimidinediamine]", "pIC50": "> 6.30"},
      {"compound": "Cc1cnc(Nc2cnc(N3CCN(C)CC3)c(C)c2)nc1Nc1ccc2[nH]c(=O)[nH]c2c1", "note": "[II-27, N4-(benzimidazolin-2-on-5-yl)-N2-[3-methyl-2-(4-methylpiperazin-1-yl)pyridin-5-yl]-5-methylpyrimidine-2,4-diamine]", "pIC50": "> 6.30"},
      {"compound": "CS(=O)(=O)Nc1ccc(Nc2ncc(F)c(Nc3ccc4oc(=O)[nH]c4c3)n2)cc1", "note": "[Compound I-53]", "pIC50": "> 6.30"},
      {"compound": "Cc1cnc(Nc2cc(F)c(N3CCN(C)CC3)c(F)c2)nc1Nc1ccc2oc(=O)[nH]c2c1", "note": "[Compound I-282, N2-[3,5-difluoro-4-(4-methylpiperazino)]phenyl-5-methyl-N4-(2-oxo-2,3-dihydro-1,3-benzoxazol-5-yl)-2,4-pyrimidinediamine]", "pIC50": "> 6.30"},
      {"compound": "Cc1cnc(Nc2cccc(S(C)(=O)=O)c2)nc1Nc1ccc2oc(=O)n(C(C)C)c2c1", "note": "[Compound I-9, N4-(3-isopropylbenzo[d]oxazol-2(3H)-on-5-yl)-N2-((3-methylsulfonyl)phenyl)-5-methylpyrimidine-2,4-diamine]", "pIC50": "> 6.30"}
    ]}
  ]
}
